Test results from patent US10035991B2, “Non-transgenic herbicide resistant plants” (priority 1999, dated 2018).

How the values were obtained:
[1] = target: wild-type EPSPS from E. coli (Escherichia coli, UniProt P0A6D3); conditions: read-out: apparent Km for PEP; cited from earlier work
[2] = tested on: SA4247 Salmonella typhi cells expressing mutant Arabidopsis thaliana EPSPS; test: Glyphosate resistance assay (growth by optical density at 600 nm); assay type: cell-based; conditions: 17 mM or 0 mM glyphosate, liquid M9 medium, OD 600 nm every hour for seven hours, compared to wild-type cells (FIG. 6)
Experimental: Electrocompetent cells of SA4247, a LacZ—Salmonella typhi strain, were prepared according to well known procedures (see Current Protocols in Molecular Biology, (Wiley and Sons, Inc.)). 30 μl of SA4247 competent cells were electroporated with 20 ng of each plasmid DNA encoding Arabidopsis wild-type and mutant EPSPS proteins, Bacillus wild-type EPSPS, along with a mock transfection as a control. The settings for electroporation were 25 μF, 2.5 KV and 200 ohms. After electroporation, the cells were transferred into 15 mls culture tube and supplemented with 970 μl of SOC medium. The cultures were incubated for 1½ hours at 37° C. at 225 rpm. 501 of each culture were plated onto LB plates containing 17 μg/ml chloramphenicol (in duplicates) and incubated overnight at 37° C. On the following day, 5 colonies of each plate were picked and transferred onto M9 plates and incubated overnight at 37° C.
Colonies from the overnight incubation on solid M9 were inoculated into 4 ml of liquid M9 medium and grown overnight at 37° C. On the following day, 25 ml of liquid M9 medium containing chloramphenicol, IPTG and 17 mM or 0 mM Glyphosate (Aldrich, 33775-7) were inoculated with 1-2 mls of each overnight culture (in duplicates), the starting OD (at 600 nm) was measured and all the cultures were normalized to start at the same OD. An OD measurement was taken every hour for seven hours. […]

wild-type EPSPS from E. coli, sequence (P0A6D3 whole entry): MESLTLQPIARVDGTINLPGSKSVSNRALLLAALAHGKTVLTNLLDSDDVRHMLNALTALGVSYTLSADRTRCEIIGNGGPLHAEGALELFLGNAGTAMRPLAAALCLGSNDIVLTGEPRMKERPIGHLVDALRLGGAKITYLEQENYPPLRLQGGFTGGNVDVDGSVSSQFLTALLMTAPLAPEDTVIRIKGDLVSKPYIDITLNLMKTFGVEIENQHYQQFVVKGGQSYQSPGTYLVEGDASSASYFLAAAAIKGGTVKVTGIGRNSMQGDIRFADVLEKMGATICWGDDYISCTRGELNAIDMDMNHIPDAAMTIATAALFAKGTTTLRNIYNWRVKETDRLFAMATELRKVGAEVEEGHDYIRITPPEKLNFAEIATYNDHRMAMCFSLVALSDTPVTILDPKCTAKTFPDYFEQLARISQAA

C=C(OP(=O)(O)O)C(=O)O [PEP, phosphoenolpyruvic acid]
Km [1]: 10 µM

O=C(O)CNCP(=O)(O)O [glyphosate, N-phosphonomethylglycine]
growth rate of cells containing a mutation in the EPSPS gene [2]: substantially similar growth rate in the absence or presence of glyphosate
